The values below come from patent US10344287B2, “Recombinant microorganism producing quinolinic acid and method for producing quinolinic acid using same” (priority 2014, dated 2019).

Holding throughout (type): cell-based, E. coli
For assay [1], the system named is W3110-ΔnadC with pPro-nadB_pCJ1-nadA and pCL1920. Description: Sensitivity to quinolinic acid, control strain. Particulars: 13 g/L quinolinic acid in medium. The method, then: (§1) First, to attenuate growth and development in the production strains, it was confirmed whether the addition of 13 g/L of quinolinic acid, in which KOH was titrated to a 7.0 pH, had influence or not. That is, a single colony of the strain producing quinolinic acid was inoculated in 25 mL of a LB+1% glucose broth (10 g/L of yeast extract, 5 g/L of NaCl, 10 g/L of tryptone, […] of kanamycin, and 10 g/L of glucose) by 1 platinum loop, and then, incubated with 250 rpm at 33° C. for 16 to 24 hours. Then, the OD600, the glucose consumption, and the residual quinolinic acid of the strain were measured.
(§2) To figure out whether the KefA membrane protein influenced the introduction of quinolinic acid, under the same method as Example 2-4(1), the kefA gene-deficient strain and the kefA gene-enhanced strain were subjected to evaluation of sensitivity to quinolinic acid.

The subject of assay [2] is W3110-ΔnadCΔkefA with pPro-nadB_pCJ1-nadA and pCL1920. Description: Sensitivity to quinolinic acid, kefA-deficient strain. As for the experimental part:
as §1, §2

Assay [3] concerns W3110-ΔnadC with pPro-nadB_pCJ1-nadA and pCL_PrhtB-kefA. The assay is described as follows: Sensitivity to quinolinic acid, kefA-enhanced strain. The method, then:
as §1
The kefA gene obtained through PCR procedures was recovered through agarose gel elution, and then, was treated with restriction enzymes EcoRV and HindIII. Afterwards, the kefA gene was subjected to ligation into a pCL1920_pRhtB vector treated with restriction enzymes EcoRV and HindIII, leading to the expression of the kefA gene linked to a pRhtB promoter. The vector prepared therefrom was named a pCL_pRhtB-kefA vector.
as §2

For assay [4], the system named is MG1655-ΔnadC with pPro-nadB_pCJ1-nadA. The assay is described as follows: Sensitivity to quinolinic acid of strain producing quinolinic acid (growth in LB+1% glucose broth). Particulars: 33° C., 16 to 24 hours. The method, then:
as §1

The subject of assay [5] is W3110-ΔnadC with pPro-nadB_pCJ1-nadA. The description is as above. The method, then:
as §1

[6] abbreviates: 13 g/L quinolinic acid in medium.

Regarding `O=C(O)c1cccnc1C(=O)O` [quinolinic acid, 2,3-pyridine-dicarboxylic acid], the Glucose consumption stood at 6.2 g/L in assay [1]; 8.0 g/L in assay [2] (setting [6]); 3.2 g/L in assay [3] (setting [6]); 6.0 g/L in assay [4] (13 g/L of quinolinic acid in medium); 6.0 g/L in assay [5] (13 g/L of quinolinic acid in medium, 33° C., 16 to 24 hours). The OD600 in assay [1] is listed as 5.0; in assay [2] (setting [6]), 8.2; in assay [3] (setting [6]), 2.1; in assay [4] (13 g/L of quinolinic acid in medium (pH 7.0 with KOH)) it was 4.5; in assay [5] (13 g/L of quinolinic acid in medium (pH 7.0 with KOH), 33° C., 16 to 24 hours) it was 4.9. For the same compound, the “growth and development and glucose consumption speed compared to control strain” value is reported as “up to 110%” in assay [2] (quinolinic acid additionally added to the medium, kefA-deficient strain versus control strain) and 50% in assay [3] (quinolinic acid additionally added to the medium, kefA-enhanced strain versus control strain). The “growth and development and glucose-consumption speed, decreased to” value in assay [5] (quinolinic acid additionally added to the medium (13 g/L) versus 0 g/L, strains of Table 5) stood at 40%.
